Reference: patent publication US8603986B2, “Compounds and methods for modulating cadherin-mediated processes” (McGill University, priority 2005, dated 2013)
Entries after “also recorded” stand apart in the source; their conditions may differ. Marks after values point to notes of the source that are not given here.

How the values were obtained:
[1] = tested on: SKOV3 human ovarian cancer cells; assay: Disruption of SKOV3 cell adhesion in confluent cultures; assay type: cell-based; parameters: key to Peptide Disrupts Adhesion of SKOV3 cells: +: yes; −: no; conditions: for Peptide Disrupts Adhesion of SKOV3 cells: Table 8 summary; for effect on SKOV3 cell adhesion: confluent cultures, concentration not given
Protocol: SKOV3 human ovarian cancer cells (kind gift from Dr. Riaz Farookhi, McGill University, Montreal, Quebec) were cultured in MEM containing 1.25 μg/ml Fungizone, 100 U/ml penicillin 100 μg/ml streptomycin, 0.1 mM nonessential amino acids, 2 mM L-glutamine, 10 μg/ml ml gentamicin and 10% fetal bovine serum. All culture reagents were purchased from GIBCO (Burlington, ON). To obtain confluent cell cultures, 100,000 cells per well were plated onto a 4 well slide (NalgeNunc, Naperville, Ill.) and incubated for 24 h at 37° C., in a humidified atmosphere (5% CO2).
Depending on their solubility, peptides were dissolved directly in culture medium and added to confluent cell cultures at the indicated concentration, or they were dissolved in dimethylformamide (DMF) to obtain a 100× concentrated solution or in water to obtain a 10× concentrated solution. The peptide stock solutions were further diluted with culture medium to a final working concentration and added to confluent cell cultures. Culture medium containing 1% solvent was used as a control. At the end of the treatment, cells were either examined by phase contrast microscopy, or fixed with 4% paraformaldehyde in PBS and stained with hematoxylin prior to light microscopic examination.
Confluent cultures of SKOV3 cells were incubated in the presence of individual peptides.

[2] = molecular target: T1, N-cadherin/Fc chimeric protein (Homo sapiens, UniProt P19022); assay: Cadherin/Fc binding assay: phage ELISA on N-cadherin/Fc; parameters: key to ELISA Phage Binding to N-Cadherin/Fc Chimeric Protein 1.2 mM calcium / ELISA Phage Binding to N-Cadherin/Fc Chimeric Protein 2 mM EDTA / ELISA Phage Binding to Cadherin/Fc Chimeric Proteins N−: +: Phage bound to the chimeric protein; −: No phage bound to the chimeric protein
T1 construct: extracellular domain of human N-cadherin (Asp160-Ala724); purchased R&D Systems, Minneapolis, Minn
T1 sequence (P19022 160-724): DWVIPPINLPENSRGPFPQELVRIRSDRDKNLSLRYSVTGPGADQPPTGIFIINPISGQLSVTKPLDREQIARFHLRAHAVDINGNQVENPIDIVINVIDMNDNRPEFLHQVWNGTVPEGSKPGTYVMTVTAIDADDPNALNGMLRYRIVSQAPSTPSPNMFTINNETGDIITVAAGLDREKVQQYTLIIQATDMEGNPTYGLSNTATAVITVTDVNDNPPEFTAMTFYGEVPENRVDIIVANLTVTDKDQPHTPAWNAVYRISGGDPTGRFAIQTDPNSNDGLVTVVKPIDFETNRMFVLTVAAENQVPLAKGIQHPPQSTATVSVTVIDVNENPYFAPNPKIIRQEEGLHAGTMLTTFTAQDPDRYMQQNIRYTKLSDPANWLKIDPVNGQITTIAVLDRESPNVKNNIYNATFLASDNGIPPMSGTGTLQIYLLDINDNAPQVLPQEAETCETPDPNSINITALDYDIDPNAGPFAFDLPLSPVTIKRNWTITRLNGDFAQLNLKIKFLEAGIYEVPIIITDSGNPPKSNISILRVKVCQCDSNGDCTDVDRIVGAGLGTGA
Text: (§1) The peptide libraries, Ph.D.-C7C™ and Ph.D.-12™ (New England BioLabs) were used in this study. These libraries are composed of 2×10^9 randomized 7 amino acid sequences flanked by cysteine residues and linear 12 amino acid sequences, respectively. The amino acid sequences are incorporated into the minor coat protein, pIII, of M13 phage. The N-cadherin/Fc chimeric protein (R&D Systems, Minneapolis, Minn.) consists of the extracellular domain of human N-cadherin (Asp160-Ala724) and the Fc region of human IgG1. The E-cadherin/Fc chimeric protein (R&D Systems, Minneapolis, Minn.) consists of the extracellular domain of human E-cadherin (Asp155-Ile707) and the Fc region of human IgG1.
The binding of each clone to the cadherin/Fc chimeric proteins was confirmed by ELISA. Wells of ProBind microtiter plates (Falcon) were coated with either N-cadherin/Fc or E-cadherin/Fc chimeric protein (100 ng/well) or human IgG1 (which contains the Fc fragment) (100 ng/well). […] Non-coated wells were also used to exclude any phage that bound to the plastic surface. […] M13 phage without any insert were used to control the non-specific binding of the phage itself to the target. […] […] Horseradish peroxidase substrate, TMB (Sigma), was added to each well (100 μl/well and after color development the reaction was stopped by addition of 100 μl 0.5 M sulphuric acid to each well. The intensity of the color was measured at 450 nm.
(§2) The phage clones shown to bind to the N-cadherin/Fc chimeric protein by ELISA were also evaluated for their ability to bind to E-cadherin/Fc and VE-cadherin/Fc chimeric proteins. The phage clones shown to bind to the E-cadherin/Fc chimeric protein by ELISA were also evaluated for their ability to bind to N-cadherin/Fc and VE-cadherin/Fc chimeric proteins. The same ELISA protocol described in the previous section was used to perform this evaluation with the exception that the wells were coated with either 100 ng N-cadherin/Fc, E-cadherin/Fc or VE-cadherin/Fc chimeric protein (R&D Systems, Minneapolis, Minn.).

[3] = molecular target: T2, E-cadherin/Fc chimeric protein (Homo sapiens, UniProt P12830); assay: Cadherin/Fc binding assay: phage ELISA on E-cadherin/Fc; parameters: key: +: Phage bound to the chimeric protein; −: No phage bound to the chimeric protein
T2 construct: extracellular domain of human E-cadherin (Asp155-Ile707); purchased R&D Systems, Minneapolis, Minn
T2 sequence (P12830 155-707): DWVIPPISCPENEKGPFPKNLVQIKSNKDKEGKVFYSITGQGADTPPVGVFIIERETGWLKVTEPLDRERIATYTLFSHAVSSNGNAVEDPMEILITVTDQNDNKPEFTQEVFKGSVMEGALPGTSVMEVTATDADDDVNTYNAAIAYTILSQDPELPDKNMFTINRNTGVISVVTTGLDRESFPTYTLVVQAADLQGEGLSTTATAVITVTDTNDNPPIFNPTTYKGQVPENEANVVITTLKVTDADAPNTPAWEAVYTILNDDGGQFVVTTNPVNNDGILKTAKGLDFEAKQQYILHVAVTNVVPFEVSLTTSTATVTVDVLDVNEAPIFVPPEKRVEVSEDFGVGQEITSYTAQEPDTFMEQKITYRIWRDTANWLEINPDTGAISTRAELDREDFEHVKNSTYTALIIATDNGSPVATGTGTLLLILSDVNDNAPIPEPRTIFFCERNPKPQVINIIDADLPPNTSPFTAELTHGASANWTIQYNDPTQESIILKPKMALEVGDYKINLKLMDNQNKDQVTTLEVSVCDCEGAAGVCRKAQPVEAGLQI
Text: as §1
(§3) The binding of each clone to the cadherin/Fc chimeric proteins was confirmed by ELISA. Wells of ProBind microtiter plates (Falcon) were coated with either N-cadherin/Fc or E-cadherin/Fc chimeric protein (100 ng/well) or human IgG1 (which contains the Fc fragment) (100 ng/well). After blocking the nonspecific sites with TBS containing 3% BSA and 1.2 mM CaCl2 for 1 h at 37° C., phage clones (10^9 pfu) diluted in TBST containing 3% BSA and 1.2 mM CaCl2 (100 μl/well). Non-coated wells were also used to exclude any phage that bound to the plastic surface. After 1 h incubation at room temperature, wells were washed 3 times with TBST containing 3% BSA and 1.2 mM CaCl2. M13 phage without any insert were used to control the non-specific binding of the phage itself to the target. Monoclonal anti-M13 antibody conjugated to horseradish peroxidase (Amersham Biosciences, Piscataway, N.J.) was diluted in TBST containing 3% BSA and 1.2 mM CaCl2 (1:2,000) and added to each well (100 μl/well). After 1 h incubation at room temperature, wells were washed three times with TBST containing 3% BSA and 1.2 mM CaCl2 and once with TBS containing 1.2 mM CaCl2. Horseradish peroxidase substrate, TMB (Sigma), was added to each well (100 μl/well and after color development the reaction was stopped by addition of 100 μl 0.5 M sulphuric acid to each well. The intensity of the color was measured at 450 nm.
as §2

[4] = molecular target: T3, VE-cadherin/Fc chimeric protein (Homo sapiens, UniProt P33151); assay: Cadherin specificity: phage ELISA on VE-cadherin/Fc; assay type: binding; parameters: key: +: Phage bound to the chimeric protein; −: No phage bound to the chimeric protein
T3 construct: purchased R&D Systems, Minneapolis, Minn
T3 sequence (P33151 with tags, fused parts or gaps limits assumed, species assumed): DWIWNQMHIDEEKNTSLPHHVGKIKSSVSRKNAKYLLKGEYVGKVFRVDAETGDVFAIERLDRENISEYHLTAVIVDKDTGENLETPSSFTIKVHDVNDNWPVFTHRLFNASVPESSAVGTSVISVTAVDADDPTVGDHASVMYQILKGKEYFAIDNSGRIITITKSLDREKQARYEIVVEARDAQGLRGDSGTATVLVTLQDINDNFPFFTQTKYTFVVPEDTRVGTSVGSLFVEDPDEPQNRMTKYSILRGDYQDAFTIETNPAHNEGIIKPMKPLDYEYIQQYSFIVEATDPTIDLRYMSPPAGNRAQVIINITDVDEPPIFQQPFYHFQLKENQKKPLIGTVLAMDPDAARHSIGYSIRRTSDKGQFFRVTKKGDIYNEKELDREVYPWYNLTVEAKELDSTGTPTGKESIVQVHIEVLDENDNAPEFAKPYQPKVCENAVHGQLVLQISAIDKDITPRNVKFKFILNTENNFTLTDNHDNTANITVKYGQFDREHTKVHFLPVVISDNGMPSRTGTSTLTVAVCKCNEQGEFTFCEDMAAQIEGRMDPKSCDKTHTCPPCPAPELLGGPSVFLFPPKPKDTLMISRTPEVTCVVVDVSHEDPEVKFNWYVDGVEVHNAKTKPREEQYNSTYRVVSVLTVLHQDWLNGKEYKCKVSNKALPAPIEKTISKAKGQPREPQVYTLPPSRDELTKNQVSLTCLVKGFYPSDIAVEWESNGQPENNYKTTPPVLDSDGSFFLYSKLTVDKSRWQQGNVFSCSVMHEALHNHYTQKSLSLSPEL
Protocol: as §3, §2

[5] = Table 2, Ph.D.-C7C library clones
[6] = Table 6, Ph.D.-C7C clones selected on E-cadherin/Fc
[7] = Table 7, Ph.D.-12 clones selected on E-cadherin/Fc
[8] = Table 4, Ph.D.-12 library clones
[9] = Table 3, clones selected in the absence of calcium

H-AELRVSSP-NH2 [reference compound]
Peptide Disrupts Adhesion of SKOV3 cells [1]: −
effect on SKOV3 cell adhesion [1]: had no biological activity

WHTSWSDTY [Nc 19]
ELISA Phage Binding to N-Cadherin/Fc Chimeric Protein 1.2 mM calcium [2, 5]: +
ELISA Phage Binding to N-Cadherin/Fc Chimeric Protein 2 mM EDTA [2, 5]: −
ELISA Phage Binding to Cadherin/Fc Chimeric Proteins E− [3, 5]: −
ELISA Phage Binding to Cadherin/Fc Chimeric Proteins VE− [4, 5]: −

WTWHWPPCC [Ec a22]
ELISA Phage Binding to Cadherin/Fc Chimeric Proteins N− [2, 6]: +
ELISA Phage Binding to Cadherin/Fc Chimeric Proteins E− [3, 6]: +
ELISA Phage Binding to Cadherin/Fc Chimeric Proteins VE− [4, 6]: −

EWTFQWNSYPAD [Ec 12-10]
ELISA Phage Binding to Cadherin/Fc Chimeric Proteins N− [2, 7]: +
ELISA Phage Binding to Cadherin/Fc Chimeric Proteins E− [3, 7]: +
ELISA Phage Binding to Cadherin/Fc Chimeric Proteins VE− [4, 7]: −

H-RYVCVGAH-NH2 [reference compound]
Peptide Disrupts Adhesion of SKOV3 cells [1]: −
effect on SKOV3 cell adhesion [1]: had no effect on cell adhesion

NWFIDFPVYPPL [Nc 12-a1]
ELISA Phage Binding to N-Cadherin/Fc Chimeric Protein 1.2 mM calcium [2, 8]: +
ELISA Phage Binding to N-Cadherin/Fc Chimeric Protein 2 mM EDTA [2, 8]: +
ELISA Phage Binding to Cadherin/Fc Chimeric Proteins E− [3, 8]: −
ELISA Phage Binding to Cadherin/Fc Chimeric Proteins VE− [4, 8]: −

WELCVSSSC [Nc 25]
ELISA Phage Binding to N-Cadherin/Fc Chimeric Protein 1.2 mM calcium [2, 5]: +
ELISA Phage Binding to N-Cadherin/Fc Chimeric Protein 2 mM EDTA [2, 5]: −
ELISA Phage Binding to Cadherin/Fc Chimeric Proteins E− [3, 5]: −
ELISA Phage Binding to Cadherin/Fc Chimeric Proteins VE− [4, 5]: −

CSKYNSPLC [Ec a4]
ELISA Phage Binding to Cadherin/Fc Chimeric Proteins N− [2, 6]: +
ELISA Phage Binding to Cadherin/Fc Chimeric Proteins E− [3, 6]: +
ELISA Phage Binding to Cadherin/Fc Chimeric Proteins VE− [4, 6]: −

WTVCPIGNC [Nc 8]
ELISA Phage Binding to N-Cadherin/Fc Chimeric Protein 1.2 mM calcium [2, 5]: +
ELISA Phage Binding to N-Cadherin/Fc Chimeric Protein 2 mM EDTA [2, 5]: −
ELISA Phage Binding to Cadherin/Fc Chimeric Proteins E− [3, 5]: −
ELISA Phage Binding to Cadherin/Fc Chimeric Proteins VE− [4, 5]: −

WQFCYAQHC [Ec 2]
ELISA Phage Binding to Cadherin/Fc Chimeric Proteins N− [2, 6]: +
ELISA Phage Binding to Cadherin/Fc Chimeric Proteins E− [3, 6]: +
ELISA Phage Binding to Cadherin/Fc Chimeric Proteins VE− [4, 6]: −

EWFWSWPGYSNT [Ec 12-a13]
ELISA Phage Binding to Cadherin/Fc Chimeric Proteins N− [2, 7]: +
ELISA Phage Binding to Cadherin/Fc Chimeric Proteins E− [3, 7]: +
ELISA Phage Binding to Cadherin/Fc Chimeric Proteins VE− [4, 7]: −

WYVCVGAHC [NoCa1]
phage binding to N-cadherin/Fc chimeric protein by ELISA [2]: good ELISA signal; also recorded: strong ELISA signal
ELISA Phage Binding to N-Cadherin/Fc Chimeric Protein 1.2 mM calcium [2, 9]: +*
ELISA Phage Binding to N-Cadherin/Fc Chimeric Protein 2 mM EDTA [2, 9]: +
ELISA Phage Binding to Cadherin/Fc Chimeric Proteins E− [3, 9]: −**
ELISA Phage Binding to Cadherin/Fc Chimeric Proteins VE− [4, 9]: −

AWTWSLPTLPQS [Ec 12-a5]
ELISA Phage Binding to Cadherin/Fc Chimeric Proteins N− [2, 7]: +
ELISA Phage Binding to Cadherin/Fc Chimeric Proteins E− [3, 7]: +
ELISA Phage Binding to Cadherin/Fc Chimeric Proteins VE− [4, 7]: −

SWTFYWPDAQLG [Ec 12-06]
ELISA Phage Binding to Cadherin/Fc Chimeric Proteins N− [2, 7]: +
ELISA Phage Binding to Cadherin/Fc Chimeric Proteins E− [3, 7]: +
ELISA Phage Binding to Cadherin/Fc Chimeric Proteins VE− [4, 7]: −

WQMVLCPAC [Ec 4]
ELISA Phage Binding to Cadherin/Fc Chimeric Proteins N− [2, 6]: +
ELISA Phage Binding to Cadherin/Fc Chimeric Proteins E− [3, 6]: +
ELISA Phage Binding to Cadherin/Fc Chimeric Proteins VE− [4, 6]: −

QWTITYPKPPAL [Ec 12-13]
ELISA Phage Binding to Cadherin/Fc Chimeric Proteins N− [2, 7]: +
ELISA Phage Binding to Cadherin/Fc Chimeric Proteins E− [3, 7]: +
ELISA Phage Binding to Cadherin/Fc Chimeric Proteins VE− [4, 7]: −

EWMIHYDSALTS [Nc 12-a6]
ELISA Phage Binding to N-Cadherin/Fc Chimeric Protein 1.2 mM calcium [2, 8]: +
ELISA Phage Binding to N-Cadherin/Fc Chimeric Protein 2 mM EDTA [2, 8]: +
ELISA Phage Binding to Cadherin/Fc Chimeric Proteins E− [3, 8]: +
ELISA Phage Binding to Cadherin/Fc Chimeric Proteins VE− [4, 8]: −

CSRPQSGLC [Ec a23]
ELISA Phage Binding to Cadherin/Fc Chimeric Proteins N− [2, 6]: +
ELISA Phage Binding to Cadherin/Fc Chimeric Proteins E− [3, 6]: +
ELISA Phage Binding to Cadherin/Fc Chimeric Proteins VE− [4, 6]: −
